# Measured values taken from patent US8716281B2, “Pyrimidine compounds that inhibit anaplastic lymphoma kinase” (Amgen Inc., priority 2010, dated 2014).
# pIC50: −log10 of the molar value.
# Molecular target: T1, wild-type human ALK cytoplasmic domain (amino acids 1058-1620) (Homo sapiens, UniProt Q9UM73)
# T1 construct: The cytoplasmic domain (amino acids 1058-1620) of wild-type human ALK; GST (N); made in house; host or cells: SF9 insect cells
# Assay: ALK Inhibition in Enzyme Assay (Lance TR-FRET)
# Assay type: biochemical
# Conditions: 2 nM enzyme, ATP at 40 μM (Km apparent), 90 minutes, mean of three replicates; read-out: ALK IC50
# Experimental: ALK Inhibition in Enzyme Assay
# Kinase activity of the purified protein was assessed using a Lance® TR-FRET assay. […] The reaction was allowed to proceed for 90 minutes at room temperature and was then terminated with 20 mM EDTA in 50 mM Tris (pH 7.5), 100 mM NaCl, 0.05% BSA, and 0.1% Tween-20. Phosphorylation of the peptide substrate was detected using the Lance® detection reagents streptavidin-allophycocyanin (SA-APC) and Eu-W1024 anti-phosphotyrosine antibody (PT66) from Perkin Elmer Life Sciences (Waltham, Mass.). The plates were read on a RUBY star plate reader (BMG LABTECH, Cary, N.C.) with an excitation wavelength of 320 nm.
# T1 sequence (Q9UM73 1058-1620): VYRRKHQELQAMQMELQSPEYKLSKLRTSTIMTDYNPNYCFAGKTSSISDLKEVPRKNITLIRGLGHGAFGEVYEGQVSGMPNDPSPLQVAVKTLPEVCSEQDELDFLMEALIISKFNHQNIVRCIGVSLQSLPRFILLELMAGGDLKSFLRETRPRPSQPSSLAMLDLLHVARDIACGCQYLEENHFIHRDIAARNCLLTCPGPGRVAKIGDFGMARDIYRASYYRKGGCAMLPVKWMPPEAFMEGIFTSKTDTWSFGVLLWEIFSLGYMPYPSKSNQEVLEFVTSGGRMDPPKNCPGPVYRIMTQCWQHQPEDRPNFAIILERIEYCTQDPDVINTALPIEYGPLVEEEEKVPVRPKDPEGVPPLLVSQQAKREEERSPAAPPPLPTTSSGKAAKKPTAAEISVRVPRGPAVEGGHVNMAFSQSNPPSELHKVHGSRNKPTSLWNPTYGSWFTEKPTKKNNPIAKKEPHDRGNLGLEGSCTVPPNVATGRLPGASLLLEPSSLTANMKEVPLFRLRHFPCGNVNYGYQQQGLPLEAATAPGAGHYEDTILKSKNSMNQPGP
row,SMILES,pIC50
1,"COc1cc(Nc2nccc(N3CC(C(=O)NCc4ccc(C)cc4)CCC3C)n2)cc(OC)c1OC (mixture of isomers) [Example 194, 6-Methyl-N-(4-Methylbenzyl)-1-(2-(3,4,5-Trimethoxyphenylamino)Pyrimidin-4-Yl)Piperidine-3-Carboxamide]",6.00 to 7.00
2,"COc1cc(Nc2nccc(N3CCSC(C(=O)NCc4ccc(C)cc4)C3)n2)cc(OC)c1OC (stereo not shown) [Example 4, N-(4-Methylbenzyl)-4-(2-(3,4,5-Trimethoxy-Phenylamino)Pyrimidin-4-Yl)Thiomorpholine-2-Carboxamide]",5.30 to 6.00
3,"COc1cc(Nc2nccc(N3CCOC(C(=O)NCc4ccc(C)cc4)C3)n2)cc(OC)c1OC (stereo not shown) [Example 5, N-(4-Methylbenzyl)-4-(2-(3,4,5-Trimethoxy-Phenylamino)Pyrimidin-4-Yl)Morpholine-2-Carboxamide]",5.30 to 6.00
4,"COc1cc(Nc2ncc(C)c(N3CCC[C@H](C(=O)NCc4ccc(C)cc4)C3)n2)cc(OC)c1OC [Example 8, (S)-1-(5-Methyl-2-(3,4,5-Trimethoxyphenyl-Amino)Pyrimidin-4-Yl)-N-(4-Methylbenzyl)Piperidine-3-Carboxamide]",5.30 to 6.00
5,"COc1cc(Nc2ncc(C)c(N3CCC[C@@H](C(=O)NCc4ccc(C)cc4)C3)n2)cc(OC)c1OC [Example 9, (R)-1-(5-Methyl-2-(3,4,5-Trimethoxyphenyl-Amino)Pyrimidin-4-Yl)-N-(4-Methylbenzyl)Piperidine-3-Carboxamide]",6.00 to 7.00
6,"COc1cc(Nc2ncc(Cl)c(N3CCC[C@H](C(=O)NCc4ccc(C)cc4)C3)n2)cc(OC)c1OC [Example 10, (S)-1-(5-Chloro-2-(3,4,5-Trimethoxyphenyl-Amino)Pyrimidin-4-Yl)-N-(4-Methylbenzyl)Piperidine-3-Carboxamide]",6.00 to 7.00
7,"COc1cc(Nc2nc(C)cc(N3CCC[C@H](C(=O)NCc4ccc(C)cc4)C3)n2)cc(OC)c1OC [Example 11, (S)-1-(6-Methyl-2-(3,4,5-Trimethoxyphenyl-Amino)Pyrimidin-4-Yl)-N-(4-Methylbenzyl)Piperidine-3-Carboxamide]",5.00 to 5.30
8,"COc1cc(Nc2nc(Cl)cc(N3CCC[C@H](C(=O)NCc4ccc(C)cc4)C3)n2)cc(OC)c1OC [Example 12, (S)-1-(6-Chloro-2-(3,4,5-Trimethoxyphenyl-Amino)Pyrimidin-4-Yl)-N-(4-Methylbenzyl)Piperidine-3-Carboxamide]",< 5.00
9,"COc1cc(Nc2nccc(N3CCC[C@@H](C(=O)NCc4ccc(F)cc4)C3)n2)cc(OC)c1OC [Example 13, (R)—N-(4-Fluorobenzyl)-1-(2-(3,4,5-Trimethoxy-Phenylamino)Pyrimidin-4-Yl)Piperidine-3-Carboxamide]",5.30 to 6.00
10,"COc1ccc(CNC(=O)[C@H]2CCCN(c3ccnc(Nc4cc(OC)c(OC)c(OC)c4)n3)C2)cc1 [Example 15, (S)-N-((4-(methyloxy)phenyl)methyl)-1-(2-((3,4,5-tris(methyloxy)phenyl)amino)-4-pyrimidinyl)-3-piperidinecarboxamide]",6.00 to 7.00
11,"COc1cc(Nc2nccc(N3CCC[C@@H](C(=O)NCc4ccc(F)cc4)C3)n2)cc(OC)c1OC [Example 19, (R)-N-(4-fluorobenzyl)-1-(2-((3,4,5-trimethoxyphenyl)amino)-4-pyrimidinyl)-3-piperidinecarboxamide]",5.30 to 6.00
12,"COc1cc(Nc2nccc(N3CCC[C@H](C(=O)NC(C)c4ccc(Br)cc4)C3)n2)cc(OC)c1OC (stereo partly drawn) [Example 26, (S)-N-(1-(4-bromophenyl)ethyl)-1-(2-((3,4,5-trimethoxyphenyl)amino)-4-pyrimidinyl)-3-piperidinecarboxamide]",6.00 to 7.00
13,"COc1cc(Nc2nccc(N3CCC[C@H](C(=O)N[C@@H](C)c4ccc(Br)cc4)C3)n2)cc(OC)c1OC [Example 27, (S)-N-((S)-1-(4-bromophenyl)ethyl)-1-(2-((3,4,5-trimethoxyphenyl)amino)-4-pyrimidinyl)-3-piperidinecarboxamide]",6.00 to 7.00
14,"COc1cc(Nc2nccc(N3CCC[C@H](C(=O)NC(c4ccccc4)C(F)(F)F)C3)n2)cc(OC)c1OC (stereo partly drawn) [Example 30, (S)-N-(2,2,2-trifluoro-1-phenylethyl)-1-(2-((3,4,5-trimethoxyphenyl)amino)-4-pyrimidinyl)-3-piperidinecarboxamide]",5.30 to 6.00
15,"COc1cc(Nc2nccc(N3CCC[C@H](C(=O)NCc4cccc5ccccc45)C3)n2)cc(OC)c1OC [Example 31, (S)-N-(1-naphthalenylmethyl)-1-(2-((3,4,5-trimethoxyphenyl)amino)-4-pyrimidinyl)-3-piperidinecarboxamide]",5.30 to 6.00
16,"COc1ccccc1CNC(=O)[C@H]1CCCN(c2ccnc(Nc3cc(OC)c(OC)c(OC)c3)n2)C1 [Example 32, (S)-N-(2-methoxybenzyl)-1-(2-((3,4,5-trimethoxyphenyl)amino)-4-pyrimidinyl)-3-piperidinecarboxamide]",5.00 to 5.30
17,"COc1cc(Nc2nccc(N3CCC[C@H](C(=O)NCc4ccc(C(F)(F)F)cc4)C3)n2)cc(OC)c1OC [Example 34, (S)-N-(4-(trifluoromethyl)benzyl)-1-(2-((3,4,5-trimethoxyphenyl)amino)-4-pyrimidinyl)-3-piperidinecarboxamide]",7.00 to 7.30
18,"COc1cccc(CNC(=O)[C@H]2CCCN(c3ccnc(Nc4cc(OC)c(OC)c(OC)c4)n3)C2)c1 [Example 38, (S)-N-(3-methoxybenzyl)-1-(2-((3,4,5-trimethoxyphenyl)amino)-4-pyrimidinyl)-3-piperidinecarboxamide]",6.00 to 7.00
19,"COc1cc(Nc2nccc(N3CCC[C@H](C(=O)NCc4ccc(N(C)C)cc4)C3)n2)cc(OC)c1OC [Example 42, (S)-N-(4-(dimethylamino)benzyl)-1-(2-((3,4,5-trimethoxyphenyl)amino)-4-pyrimidinyl)-3-piperidinecarboxamide]",5.30 to 6.00
20,"COc1cc(Nc2nccc(N3CCC[C@H](C(=O)NC(C#N)c4ccccc4)C3)n2)cc(OC)c1OC (stereo partly drawn) [Example 43, (S)-N-(cyano(phenyl)methyl)-1-(2-((3,4,5-trimethoxyphenyl)amino)-4-pyrimidinyl)-3-piperidinecarboxamide]",6.00 to 7.00
21,"COc1cc(Nc2nccc(N3CCC[C@H](C(=O)NC(C)c4ccc5[nH]ccc5c4)C3)n2)cc(OC)c1OC (stereo partly drawn) [Example 45, (S)-N-(1-(1H-indol-5-yl)ethyl)-1-(2-((3,4,5-trimethoxyphenyl)amino)-4-pyrimidinyl)-3-piperidinecarboxamide]",6.00 to 7.00

# Now from value to molecule:
row,pIC50,SMILES
1,5.30 to 6.00,"COc1cc(Nc2nccc(N3CC(C)CC(C(=O)NCc4ccc(C)cc4)C3)n2)cc(OC)c1OC (mixture of isomers) [Example 195, 5-Methyl-N-(4-Methylbenzyl)-1-(2-(3,4,5-Trimethoxyphenyl Amino)Pyrimidin-4-Yl)Piperidine-3-Carboxamide]"
2,5.30 to 6.00,"COc1cc(Nc2nccc(N3CCNC(C(=O)NCc4ccc(C)cc4)C3)n2)cc(OC)c1OC (stereo not shown) [Example 2, N-(4-Methylbenzyl)-4-(2-(3,4,5-Trimethoxyphenylamino)Pyrimidin-4-Yl)Piperazine-2-Carboxamide]"
3,6.00 to 7.00,"O=C(NCc1ccc(OC(F)(F)F)cc1)[C@H]1CCCN(c2ccnc(Nc3ccc(N4CCOCC4)cc3)n2)C1 [Example 3, (S)-1-(2-(4-Morpholinophenylamino)Pyrimidin-4-Yl)-N-(4-(Trifluoromethoxy)Benzyl)Piperidine-3-Carboxamide]"
4,6.00 to 7.00,"COc1cc(Nc2nccc(N3CCC[C@H](C(=O)NCc4ccc(F)cc4)C3)n2)cc(OC)c1OC [Example 14, (S)-N-((4-fluorophenyl)methyl)-1-(2-((3,4,5-tris(methyloxy)phenyl)amino)-4-pyrimidinyl)-3-piperidinecarboxamide]"
5,5.00 to 5.30,"COc1cc(Nc2nccc(N3CCC[C@@H](C(=O)NCc4ccncc4)C3)n2)cc(OC)c1OC [Example 18, (R)-N-(4-pyridinylmethyl)-1-(2-((3,4,5-trimethoxyphenyl)amino)-4-pyrimidinyl)-3-piperidinecarboxamide]"
6,7.00 to 7.30,"COc1cc(Nc2nccc(N3CCC[C@H](C(=O)NCc4cc(Cl)ccc4C)C3)n2)cc(OC)c1OC [Example 28, (S)-N-(5-chloro-2-methylbenzyl)-1-(2-((3,4,5-trimethoxyphenyl)amino)-4-pyrimidinyl)-3-piperidinecarboxamide]"
7,7.00 to 7.30,"COc1cc(Nc2nccc(N3CCC[C@H](C(=O)NCc4ccc(Cl)cc4F)C3)n2)cc(OC)c1OC [Example 29, (S)-N-(4-chloro-2-fluorobenzyl)-1-(2-((3,4,5-trimethoxyphenyl)amino)-4-pyrimidinyl)-3-piperidinecarboxamide]"
8,5.00 to 5.30,"COc1cc(Nc2nccc(N3CCC[C@H](C(=O)NCc4ccccc4C(F)(F)F)C3)n2)cc(OC)c1OC [Example 37, (S)-N-(2-(trifluoromethyl)benzyl)-1-(2-((3,4,5-trimethoxyphenyl)amino)-4-pyrimidinyl)-3-piperidinecarboxamide]"
9,5.30 to 6.00,"COc1cc(Nc2nccc(N3CCC[C@H](C(=O)NC4CCc5ccccc54)C3)n2)cc(OC)c1OC (stereo partly drawn) [Example 39, (S)-N-(2,3-dihydro-1H-inden-1-yl)-1-(2-((3,4,5-trimethoxyphenyl)amino)-4-pyrimidinyl)-3-pipcridinecarboxamide]"
10,6.00 to 7.00,"COc1cc(Nc2nccc(N3CCC[C@H](C(=O)NCc4ccc5c(c4)CCO5)C3)n2)cc(OC)c1OC [Example 44, (S)-N-(2,3-dihydro-1-bcnzofuran-5-ylmethyl)-1-(2-((3,4,5-trimethoxyphenyl)amino)-4-pyrimidinyl)-3-piperidinecarboxamide]"
